{"source": "patent US8809358B2", "about": "“Use of IκB-kinase inhibitors in pain therapy” (Sanofi-Aventis Deutschland GmbH, priority 2002, dated 2014)", "tested_on": "Zymosan-induced paw inflammation", "assay": "Zymosan-induced paw inflammation in the rat: paw withdrawal time during thermal stimulation (Hargreaves test)", "format": "in vivo", "settings": "for Change in the paw withdrawal time (%): 30 mg/kg i.p. 15 min before, 2.5 and 5.5 h after Zymosan", "protocol": "• Zymosan-induced paw inflammation in the rat; • Parameter: paw withdrawal time or paw withdrawal threshold during thermal or mechanical stimulation of the hind paw. 2nd Model: • Kaolin/carrageenan-induced knee joint inflammation in the rat; • Parameter: reaction of spinal neurons during pressure stimulation of the knee. Model 1\nExperimental implementation: in short-term anesthesia using isoflurane, 1 mg of Zymosan (as a suspension in 100 μl of PBS (phosphate-buffered salt solution)) was injected subcutaneously into the middle of the plantar side of one of the experimental animal's hind paws. After that, two different behavioral tests were used to quantitatively determine the development of a hyperalgesia.\na) Determining the Paw Withdrawal Time During Thermal Stimulation (Hargreaves Test).\nThe experimental animal was placed in a transparent plastic chamber having a glass floor. As soon as the experimental animal was no longer moving, following the reconnaissance phase (about 5 min), an infrared light source was positioned directly below the hind paw to be stimulated and switched on. The lamp emitted focused infrared light of increasing intensity, such that the skin temperature of the hind paw increased almost linearly. As soon as the animal withdrew the paw, the lamp switched itself off. The temperature of the paw at the time it is withdrawn has just become unpleasant for the animal; this is referred to as the thermal pain threshold.\nAbout half an hour before, and at various times after, the Zymosan injection, the thermal and mechanical pain thresholds were determined on the right hind paw and on the left hind paw (see Tables 1, 2). The decrease in the ipsilateral pain threshold, expressed in % of the contralateral pain threshold, was then calculated (see Tables 1, 2). The degree of hyperalgesia is directly proportional to the magnitude of this decrease.\nIn a control group, the Zymosan injection induced pronounced mechanical and thermal hyperalgesia (see control data in Tabs. 1 and 2)."}
{"smiles": "CNc1nccc(-c2cc3cc(C(=O)N[C@@H](CN(c4ccccc4)c4ccccc4)c4n[nH]c(=O)o4)ccc3[nH]2)n1", "note": "[Compound 13, N—[(S)-2-diphenylamino-1-(5-oxo-4,5-dihydro[1,3,4]oxadiazol-2-yl)ethyl]-2-(2-methylaminopyrimidin-4-yl)-1H-indole-5-carboxamide]", "values": [{"measurement": "Change in the paw withdrawal time (%)", "setting": "4 h after Zymosan injection", "result": "−16.0", "unit": "%"}, {"measurement": "Change in the paw withdrawal time (%)", "setting": "5 h after Zymosan injection", "result": "−9.7", "unit": "%"}, {"measurement": "Change in the paw withdrawal time (%)", "setting": "6 h after Zymosan injection", "result": 5.0, "unit": "%"}, {"measurement": "Change in the paw withdrawal time (%)", "setting": "7 h after Zymosan injection", "result": 3.4, "unit": "%"}, {"measurement": "Change in the paw withdrawal time (%)", "setting": "24 h after Zymosan injection", "result": "−3.8", "unit": "%"}, {"measurement": "Change in the paw withdrawal time (%)", "setting": "Baseline −0.5 h", "result": 0.0, "unit": "%"}, {"measurement": "persistence of the effect on thermal hyperalgesia after the last administration", "setting": "30 mg/kg i.p. three times", "result": "≥ 18", "unit": "h"}, {"measurement": "side difference in the paw withdrawal time", "setting": "30 mg/kg i.p., after the third administration of the substance", "result": "no longer possible to observe any side difference at all"}, {"measurement": "thermal hyperalgesia compared with the control group", "setting": "30 mg/kg i.p., from two hours after Zymosan injection onward", "result": "less pronounced"}, {"measurement": "reduction of thermal hyperalgesia compared with the NSAID diclofenac", "setting": "comparative data from a study carried out previously", "result": "considerably more powerfully"}, {"measurement": "activity in the test model", "setting": "thermal hyperalgesia", "result": "very strong"}]}
